The values below are quoted from earlier work in paper PMC2866165 (Nuclear medicine and biology, 2010).

Data set [1] deals with PDE3A. To be noted: read-out: IC50 for PDE3A.
Data set [2] has as its system PDE4D. The note with it: read-out: IC50 for PDE4D.

Consider `COc1ccc(Cc2nccc3cc(OC)c(OC)cc23)cc1OC` [Papaverine, 1-(3,4-dimethoxybenzyl)-6,7-dimethoxyisoquinoline], for which the “Biological half-life in rat plasma” value is 15 min. Further, the IC50 (usually the concentration that inhibits the measured activity by half) in data set [1] is 1.3 µM. For the same compound, the IC50 in data set [2] is 0.32 µM.
